Where two headings read alike, the source gives them in different places.

The target in assay [1] is DCN1 (DCUND1) protein PONY domain (Homo sapiens (Human), UniProt Q96GG9). As to the kind of experiment: TR-FRET assay (binding to DCN-1, displacement of FAM-labeled probe). The gist of the method:
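Compounds read at 1, 5 and 24 h, 0.1% final DMSO, by TR-FRET between terbium-streptavidin on biotinylated DCN1 PONY domain (E. coli) and a FAM-tagged non-covalent inhibitor probe. Two setups used, 5 nM protein with 20 nM labelled probe, or 0.31 nM protein with 100 nM labelled plus 800 nM unlabelled probe; buffer had TritonX and 200 mM NaCl. % activity relative to high (with probe) and low (without probe) controls.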
For orientation: In TR-FRET formats the signal depends on donor and acceptor labels being close together.

For the next assay, the target named is DCN1 protein (Homo sapiens (Human), UniProt Q96GG9). As to the kind of experiment: Intact protein MS analysis with the RapidFire-TOF system (covalent adduct formation). The format is binding. To be noted: 400 nM DCN1, incubated at room temperature for 3 hours. As to the method:
(§1) DCN1 protein, His-TEV-DCN1, were expressed in E. Coli. The His-tagged protein was first purified with an Ni-NTA column. The His-tag was cleaved using His-tag TEV protease and the His-tags were removed using a second Ni-NTA column. Protein purity was verified with SDS-PAGE and intact MS. DCN1 was dissolved in a buffer containing 25 mM Tris-HCl, 200 mM NaCl, and 1 mM DTT at 400 nM. 11 concentrations of compounds were added to the DCN1 solution and incubated at room temperature for 3 hours, unless otherwise specified. The reaction plates were quenched by adding 0.2% formic acid. Quenched assay plates were analyzed with an Agilent RapidFire 360 system connected to an Agilent 6545 Q-TOF mass spectrometer equipped with an AJS source. 10 μL of sample volume was loaded onto a custom packed cartridge (4 μL, PLRP-S 30 μm/1000 Å pore; Optimize Technologies) with loading buffer (ddH2O with 0.09% (vol/vol) formic acid and 0.01% (vol/vol) trifluoroacetic acid; 1.25 ml/min) for 6 seconds before being eluted directly into the mass spectrometer in elution buffer (80% acetonitrile with 0.09% (vol/vol) formic acid and 0.01% (vol/vol) trifluoroacetic acid; 0.5 ml/min) for 7 seconds. The cartridge was re-equilibrated with loading buffer for 1 second before collection of the next sample. The Q-TOF was operated in TOF-only positive ionization mode set to the following parameters: Gas Temp=350 C, Drying Gas=7 l/min, Nebulizer=50 psi, Sheath Gas Temp=400 C, Sheath Gas Flow=12 l/min, VCap=4000 V, Nozzle Voltage=1000 V, Fragmentor=125 V, Skimmer=65 V and Oct 1 RF Vpp=750V. Raw MS data files were deconvoluted and analyzed using the Agilent MassHunter Bioconfirm software package to identify both parent protein and expected compound adduct mass signatures.
An MS assay was performed to evaluate the ability of the compounds to covalently modify DCN-1.
as §1, with “Vcap=4000” for “VCap=4000”

[2] abbreviates: 24 hr after treatment with compound, read-out: TR FRET IC50 24 hr.
Setting [3] is: TR FRET IC50 1 hr (nM), 1 hr after treatment with compound.

DCN1 protein, sequence (Q96GG9 whole entry): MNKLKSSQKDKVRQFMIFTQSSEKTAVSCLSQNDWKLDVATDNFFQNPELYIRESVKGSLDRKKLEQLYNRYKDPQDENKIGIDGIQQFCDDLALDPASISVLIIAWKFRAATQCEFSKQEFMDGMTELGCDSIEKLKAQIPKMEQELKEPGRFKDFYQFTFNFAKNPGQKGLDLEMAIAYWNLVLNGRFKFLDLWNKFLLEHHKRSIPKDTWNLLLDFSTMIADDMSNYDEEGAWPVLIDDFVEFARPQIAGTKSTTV
DCN1 (DCUND1) protein PONY domain, sequence (Q96GG9 60-248): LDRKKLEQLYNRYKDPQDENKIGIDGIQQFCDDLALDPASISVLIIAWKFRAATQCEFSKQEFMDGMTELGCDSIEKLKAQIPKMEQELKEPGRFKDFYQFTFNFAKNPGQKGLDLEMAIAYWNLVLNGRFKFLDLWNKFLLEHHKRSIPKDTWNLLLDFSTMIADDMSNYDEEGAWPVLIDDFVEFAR

`CCN1C(=O)[C@@H](NC(=O)c2cccc(C(F)(F)F)c2)[C@H](c2cccc(NC(=O)/C=C/CN(C)C)n2)c2cnn(-c3ccccc3)c21` [Compound I-214]: the concentration for half-maximal inhibition (IC50) is not above 200 nM in assay [1] (setting [2]) and 200 to 1000 nM in assay [1] (setting [3]). Moreover, at DCN1 protein, the Emax fell in the range of 80 to 100%. Regarding `C=C(CN1CCOCC1)C(=O)NCc1cccc([C@@H]2c3cnn(-c4ccccc4)c3N(CC)C(=O)[C@H]2NC(=O)c2cccc(C(F)(F)F)c2)c1` [Compound I-62], the half-maximal inhibitory concentration (IC50) in assay [1] (setting [2]) was not above 200 nM; in assay [1] (read-out: TR FRET IC50 1 hr, 1 hr after treatment with compound), not above 200 nM. The compound also had an Emax on DCN1 protein of 80 to 100%.

Take `C=C(CN1CC2(COC2)C1)C(=O)N(C)Cc1cccc([C@@H]2c3cnn(-c4ccccc4)c3N(CC)C(=O)[C@H]2NC(=O)c2cccc(C(F)(F)F)c2)c1` [Compound I-219]: the IC50 in assay [1] (setting [2]) was not above 200 nM; in assay [1] (setting [3]), 200 to 1000 nM. On DCN1 protein, this compound registered an Emax of 80 to 100%.

Consider `CCN1C(=O)[C@@H](NC(=O)c2cccc(C(F)(F)F)c2)[C@H](c2ccccc2NC(=O)CCl)c2cnn(-c3ccccc3)c21` [Compound I-197, N-((4R,5S)-4-(2-(2-chloroacetamido)phenyl)-7-ethyl-6-oxo-1-phenyl-4,5,6,7-tetrahydro-1H-pyrazolo[3,4-b]pyridin-5-yl)-3-(trifluoromethyl)benzamide], for which, on DCN1 protein, the Emax is 80 to 100%. For the compound `CCN1C(=O)[C@H](NC(=O)c2cccc(C(F)(F)F)c2)[C@@H](c2cccc(NS(=O)(=O)CCl)c2)c2c(C)nn(-c3ccccc3)c21` (racemic) [Compound I-209], the Emax on DCN1 protein lay within 0 to 30%. `C#CC(=O)Nc1cccc([C@H]2c3c(C)nn(-c4ccccc4)c3N(CC)C(=O)[C@@H]2NC(=O)c2cccc(C(F)(F)F)c2)c1` (racemic) [Compound I-207]: the Emax at DCN1 protein was in the range of 80 to 100%. The same measure, in the same setting: the figure for `CCN1C(=O)[C@@H](NC(=O)c2cccc(C(F)(F)F)c2)[C@@H](c2cccc(NS(=O)(=O)CCl)c2)c2c(C)nn(-c3ccccc3)c21` (racemic) [Compound I-184] is 0 to 30%; for `CCN1C(=O)[C@H](NC(=O)c2cccc(C(F)(F)F)c2)[C@@H](c2ccccc2NC(=O)/C=C/CN2CCOCC2)c2cnn(-c3ccccc3)c21` (racemic) [Compound I-176] it is 0 to 30%; for `CCN1C(=O)[C@H](NC(=O)c2cccc(C(F)(F)F)c2)[C@@H](c2ccccc2NC(=O)C(F)Cl)c2cnn(-c3ccccc3)c21` (mixture of isomers) [Compound I-174] it is 0 to 30%. In the case of `CCN1C(=O)[C@@H](NC(=O)c2cccc(C(F)(F)F)c2)[C@@H](c2ccccc2NC(=O)CCl)c2c(C)nn(-c3ccccc3)c21` (racemic) [Compound I-191], the Emax on DCN1 protein lay within 80 to 100%. As to `CC#CC(=O)Nc1cccc([C@H]2c3c(C)nn(-c4ccccc4)c3N(CC)C(=O)[C@@H]2NC(=O)c2cccc(C(F)(F)F)c2)c1` (racemic) [Compound I-193], the Emax on DCN1 protein was 30 to 80%. On DCN1 protein, `CCN1C(=O)[C@@H](NC(=O)c2cccc(C(F)(F)F)c2)[C@@H](c2cccc(NC(=O)[C@H](C)Br)c2)c2c(C)nn(-c3ccccc3)c21` (mixture of isomers) [Compound I-204] gave an Emax of 0 to 30%. The same measure, in the same setting: the same measure for `CCN1C(=O)[C@@H](NC(=O)c2cccc(C(F)(F)F)c2)[C@@H](c2cccc(NC(=O)COc3c(F)c(F)cc(F)c3F)c2)c2c(C)nn(-c3ccccc3)c21` (racemic) [Compound I-206]: 0 to 30%; for `C#CC(=O)Nc1cccc([C@H]2c3c(C)nn(-c4ccccc4)c3N(CC)C(=O)[C@H]2NC(=O)c2cccc(C(F)(F)F)c2)c1` (racemic) [Compound I-173]: 30 to 80%; for `C/C=C/C(=O)Nc1cccc([C@H]2c3c(C)nn(-c4ccccc4)c3N(CC)C(=O)[C@@H]2NC(=O)c2cccc(C(F)(F)F)c2)c1` (racemic) [Compound I-164]: 0 to 30%. `CCN1C(=O)[C@@H](NC(=O)c2cccc(C(F)(F)F)c2)[C@@H](c2cccc(NC(=O)/C=C/CN3CCOCC3)c2)c2c(C)nn(-c3ccccc3)c21` (racemic) [Compound I-205] displayed an Emax at DCN1 protein of 0 to 30%.

The term IC50 denotes the concentration that inhibits the measured activity by half. As a reminder, the Emax is the greatest response seen or fitted, relative to the assay's reference.

Source of the values: patent publication US12435087B2, “Modulators of DCN-1 and methods of use thereof” (Cellarity, Inc., priority 2023, dated 2025).
